# According to patent US20050153395A1, “Unique integrin binding site in connective tissue growth factor (CTGF)” (CHILDREN'S HOSPITAL INC., priority 2003, published 2005):
# What was measured:
# integrin αvβ3 = integrin αvβ3 (Homo sapiens, UniProt P05106+P06756); experiment: Solid phase ELISA of integrin αvβ3 binding; settings: for inhibition of αvβ3 binding to CTGF4: 35 μM peptide pre-incubated with 1 μg/ml αvβ3
# Procedure: Solid phase binding studies were also performed to investigate the binding of CTGF isoforms and αvβ3. Each CTGF isoform or vitronectin was individually coated onto microtiter wells at different concentrations, and the subsequent binding of αvβ3 was detected by ELISA using an anti-human αvβ3 monoclonal antibody. […] Saturation of binding occurred at 2 μg/ml for each CTGF isoform and 4 μg/ml for vitronectin.
# In order to identify the αvβ3 binding site in CTGF4, eighteen synthetic peptides spanning the entire C-terminal region of CTGF4 (residues 246-349 of SEQ ID NO: 1) were synthesized and used as potential blocking agents in the solid phase binding studies as described in Example 3. Microtiter wells (Dynex Technology) were pre-coated with different CTGF isoforms at desired concentrations at 4° C. for 16 hours, and then blocked with 2% BSA at room temperature for 2 hours. The plates were washed, four times with PBS, pH 7.3, containing 1 mM CaCl2 and 1 mM MgCl2. Integrin αvβ3 (1 μg/ml) was pre-incubated with each synthetic peptide for 1 hour in blocking solution, and then added to each well, and incubated at room temperature for 3 hours. Integrin αvβ3 was detected by successive incubation with anti-human αvβ3 monoclonal antibody diluted in blocking solution (1:1000), and followed by HRP-conjugated goat anti-mouse IgG (1:4000). The color reaction was developed using the horseradish peroxidase ELISA reagents (Chemicon), and the absorbance at 450 nm was measured using Bio Assay Reader (HTS700).
# The ability of mutant CTGF4 to bind to integrin αvβ3 was assessed by solid phase ELISA which measured the ability of purified integrin αvβ3 to bind to the CTGF4 mutants.
# [1] = test system: hepatic stellate cells (HSC); experiment: HSC adhesion assay on coated wells (CyQUANT fluorescence); format: cell-based, rat; settings: for effect of divalent cation on HSC adhesion to CTGF4: 10 mM cation, after EDTA; for inhibition of CTGF4-mediated HSC adhesion: wells coated 2 μg/ml CTGF4, antibody/IgG 25 μg/ml, heparin 2 μg/ml; for HSC adhesion supported by the coated substance: coated at 2 μg/ml
# Procedure: CTGF4 is known to be expressed in hepatic stellate cells (HSC) and to induce proliferation and extracellular matrix (ECM) production in these cells. (Williams et al., J Hepatol 32, 754-761, 2000; Paradis et al., Lab Invest 82, 767-774, 2002). The following experiments were carried out to determine if HSCs adhere to CTGF. HSCs were isolated from normal Sprague-Dowley rate by sequential perfusion with pronase/collagenase and purified by density gradient separation as described in Vyas et al. (Gastroenterology 109: 889-898, 1995).
# The cells were subsequently detached using 1 mM EDTA PBS (137 mM NaCl, 2.7 mM KCl, 4.3 mM Na2HPO4, 1.4 mM KH2PO4, pH 7.3), washed twice in DMEM and resuspended in serum free medium containing 0.5% BSA. The cells-were plated (1.25×10^4 cells/well) in a 96 well plate coated with one of the following: 2 μg/ml CTGF isoform (CTGF1-4, CTGF3-4, CTGF4), 1 μg/ml laminin, or 4 μg/ml vitronectin and incubated for 20 minutes at 37° C. Subsequently the cells were washed with PBS and the adherent cells were fixed with 10% formalin and stained with CyQUANT GR dye/cell lysis buffer (Molecular Probes , Eugene, Oreg.) according to the manufacturer's instructions. The number of cells that adhered to CTGF isoforms or ECM protein was quantified by measuring the sample fluorescence intensity at Ex/Em: 480/520 nm using a micro-plate reader (CytoFluor™ 2350).
# To determine if the CTGF-mediated HSC adhesion was carried out through integrin receptors, the experiment described above were carried out in the presence and absence of 10 mM EDTA. […] It is widely believed that Mn^2+ induces conformational shifts that mimic the physiological activation of β1 and β3 integrins (Roberts et al., J Biol Chem 278: 1975-1985, 2003, van der Pauw et al., J Periodontal Res 37: 317-323, 2002) as Mn^2+-induced activation leads to enhanced ligand-binding affinity and cell adhesion (Mould et al., J Biol Chem 277: 19800-19805, 2002, Loftus & Liddington J Clin Invest 100: S77-81, 1997, Lin et al., J Biol Chem 272: 14236-14243, […]).
# Synthetic peptides GRGDsp (1 mM), GRGEsp (1 mM), Echistatin (2 μM) or vehicle buffer alone were added to the, HSC culture medium 30 minutes prior to plating.
# In addition, adhesion assays as described in Example 1 were carried out in CTGF4 coated plates in the presence and absence of monoclonal antibody specific for αvβ3 (LM609).
# [2] = test system: pancreatic stellate cells (PSC); experiment: PSC adhesion assay on coated wells; format: cell-based, rat; settings: for restoration of CTGF-mediated PSC adhesion after EDTA: 10 mM cation, 5 mM EDTA; for inhibition of PSC adhesion to CTGF4: 2 μg/ml CTGF4 coat, EDTA 5 mM, antibodies 25 μg/ml, heparin 2 μg/ml, peptides 35 μM; for PSC adhesion supported by the coated substance: coated at 2 μg/ml; for inhibition of FN-mediated PSC adhesion: fibronectin coat
# From the text: Rat PSCs were isolated by a modification of the method described by Phillips et al., Gut; 52:677-82, 2003. Briefly, pancreatic tissue was digested in situ with 0.03% collagenase P (Roche, Indianapolis, Ind.) in HBSS by perfusion through the thoracic aorta. This protocol was approved by the Institutional Animal Care and Use Committee of Children's Research Institute, Columbus, Ohio. The tissue was pooled, minced with scissors, and then digested with 0.05% collagenase P, 0.02% protease XIV (Sigma, St. Louis), and DNase I (Roche, Indianapolis, Ind.) in HBSS. The resulting cell suspension was centrifuged in a 12% Optiprep gradient at 1400 g for 14 minutes. Stellate cells separated into a hazy band just above the interface of a the gradient and the aqueous buffer. This band was harvested, and the cells washed and resuspended in DMEM supplemented with 25 mM Hepes buffer, 10% FBS, and 100 U/ml penicillin in, 100 μg/ml streptomycin. The, cells were maintained at 37° C. in a humidified atmosphere of 5% CO2/95% air.
# The ability of activated PSC to adhere to non-tissue culture plastic microtiter wells coated with recombinant CTGF1-4, CTGF3-4 or CTGF4 was investigated. The solid phase binding assay was carried out as described in Example 2. […] To assess the possibility that CTGF-mediated PSC adhesion involved cell surface integrins, the effect of divalent cations on cell adhesion was examined, as described in Example 2. […]
# Because CTGF is a heparin-binding protein, this property was further investigated.
# To identify the peptides that bind to PSCs, cell adhesion assays were carried out as described in Example 3.
# To further investigate the peptide binding, P2 or P5 (10 μM) or vehicle buffer alone (no add) were added to PSC cell suspensions for 30 minutes at room temperature.
# integrin α5β1 = integrin α5β1 (Homo sapiens, UniProt P05556+P08648); experiment: Solid phase ELISA of integrin α5β1 binding; settings: for reversal of EDTA inhibition of α5β1 binding to CTGF4: 10 mM cation; for inhibition of cell-free binding of integrin α5β1 to FN: FN 4 μg/ml
# integrin α5β1, sequence (P08648 42-894 limits assumed): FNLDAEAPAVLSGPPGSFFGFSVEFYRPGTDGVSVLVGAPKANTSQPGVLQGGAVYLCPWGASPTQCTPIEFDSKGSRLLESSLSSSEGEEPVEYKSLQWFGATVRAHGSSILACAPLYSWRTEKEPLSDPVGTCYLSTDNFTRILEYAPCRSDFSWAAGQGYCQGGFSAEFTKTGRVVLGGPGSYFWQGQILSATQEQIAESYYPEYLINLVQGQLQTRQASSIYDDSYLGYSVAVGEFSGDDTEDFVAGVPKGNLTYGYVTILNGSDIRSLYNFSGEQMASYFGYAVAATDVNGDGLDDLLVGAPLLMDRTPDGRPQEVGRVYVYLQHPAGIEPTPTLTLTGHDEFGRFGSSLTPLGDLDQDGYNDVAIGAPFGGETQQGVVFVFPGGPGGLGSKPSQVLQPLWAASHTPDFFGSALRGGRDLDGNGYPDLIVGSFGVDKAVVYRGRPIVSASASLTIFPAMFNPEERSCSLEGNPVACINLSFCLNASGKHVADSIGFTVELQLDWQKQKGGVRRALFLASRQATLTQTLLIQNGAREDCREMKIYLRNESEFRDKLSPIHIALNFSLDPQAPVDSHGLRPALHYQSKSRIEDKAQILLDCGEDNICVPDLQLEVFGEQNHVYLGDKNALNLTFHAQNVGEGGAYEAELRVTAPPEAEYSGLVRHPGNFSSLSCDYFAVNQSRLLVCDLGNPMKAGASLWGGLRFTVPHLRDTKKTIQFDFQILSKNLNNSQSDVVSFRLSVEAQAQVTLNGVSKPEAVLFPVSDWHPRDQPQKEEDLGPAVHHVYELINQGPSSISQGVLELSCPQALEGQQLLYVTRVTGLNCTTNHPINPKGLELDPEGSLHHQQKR
# integrin α5β1, sequence (P08648 895-1049 partner limits assumed): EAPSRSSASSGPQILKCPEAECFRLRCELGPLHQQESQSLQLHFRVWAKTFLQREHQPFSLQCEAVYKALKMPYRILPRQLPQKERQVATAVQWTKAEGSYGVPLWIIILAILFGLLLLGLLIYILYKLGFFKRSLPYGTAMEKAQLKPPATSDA
# integrin α5β1, sequence (P05556 21-798): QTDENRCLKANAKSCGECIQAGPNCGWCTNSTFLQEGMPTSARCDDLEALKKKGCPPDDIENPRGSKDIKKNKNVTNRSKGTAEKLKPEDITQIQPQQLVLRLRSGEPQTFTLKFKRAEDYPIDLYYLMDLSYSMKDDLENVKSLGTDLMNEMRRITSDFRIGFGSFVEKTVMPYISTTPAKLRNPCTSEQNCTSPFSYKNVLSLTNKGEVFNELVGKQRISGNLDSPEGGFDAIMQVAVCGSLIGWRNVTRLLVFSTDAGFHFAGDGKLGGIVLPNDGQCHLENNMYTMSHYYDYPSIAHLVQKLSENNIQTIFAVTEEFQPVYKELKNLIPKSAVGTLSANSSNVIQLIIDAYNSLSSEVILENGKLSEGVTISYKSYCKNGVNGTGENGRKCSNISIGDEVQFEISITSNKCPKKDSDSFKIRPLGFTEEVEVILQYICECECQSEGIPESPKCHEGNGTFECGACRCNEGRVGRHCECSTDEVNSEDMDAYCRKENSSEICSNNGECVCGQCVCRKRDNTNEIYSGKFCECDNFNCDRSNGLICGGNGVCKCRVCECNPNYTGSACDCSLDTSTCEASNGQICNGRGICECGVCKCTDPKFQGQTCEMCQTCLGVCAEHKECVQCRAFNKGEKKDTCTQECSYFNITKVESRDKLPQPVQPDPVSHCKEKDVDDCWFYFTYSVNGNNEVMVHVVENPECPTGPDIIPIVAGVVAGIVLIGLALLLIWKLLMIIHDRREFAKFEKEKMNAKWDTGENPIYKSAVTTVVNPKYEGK
# Procedure: In a second approach, a solid phase binding assay was used in which CTGF1-4 or FN were individually coated onto microtiter wells that were subsequently incubated with purified integrin α5β1. The presence of immobilized integrin α5β1 was detected by ELISA using an anti-integrin α5β1 antibody similar to the methods described in Example 3 above. In addition, CTGF1-4 bound to integrin α5β1 in a dose-dependent manner, with maximal binding at 2 μg/ml CTGF. This level of CTGF1-4 (2 μg/ml) binding was the same as that elicited by 2 μg/ml FN, a well known ligand of integrin α5β1. In a similar experiment, 2 μg/ml of CTGF1-4;CTGF3-4 or CTGF4 were individually precoated onto microtiter wells. Using the solid-phase assay, integrin α5β1 bound to CTGF1-4, CTGF3-4 or CTGF4 See FIG. 5 (Panel B).
# To directly analyze whether α5β1 integrin binds to CTGF4, microtiter wells coated with CTGF4 (2 μg/ml) or FN (4 μg/ml) were used in an ELISA assay to detect integrin binding, as described in Example 3. For these assays, 1 μg/ml integrin α5β1, alone or in the presence of 35 μM of P2peptide (CTGF[257-272]) and 35 μM of P5 peptide (CTGF [285-291]), were added to the precoated plates. […] The binding between CTGF4 and integrin α5 β1 was blocked by peptide P5 (CTGF [285-291]) or peptide P2 (CTGF[257-272]). […]
# CTGF promoter = CTGF promoter luciferase reporter pCCN2-Luc in PSCs; format: cell-based, rat; settings: P<0.01 compared with no stimulation
# Procedure: TGF-β1 is a well characterized transcriptional activator of CTGF in other cell types. To further examine the mechanism by which TGF-β1 and other fibrogenic stimulators could influence CTGF production in PSCs, CTGF promoter activity in PSCs was evaluated using the luciferase reporter, pCCN2-Luc, as described in Gao et al., (J Hepatol 2004;40:431-8).
# PSCs [3] = experiment: PSC chemotaxis (migration) assay in culture insert; format: cell-based, rat; settings: substance in lower chamber
# Procedure: To examine whether CTGF plays a role in PSC migration, a chemotaxis assay was carried out in which the migratory behavior of PSCs in the upper chamber of a culture insert was assessed following addition of CTGF to the lower chamber. […] PSC migration was also promoted by FN, PDGF or TGF-β1.
# PSCs [4] = experiment: PSC DNA synthesis, [3H]thymidine incorporation; format: cell-based, rat; settings: 24 hours; CTGF1-4 effect in 0.1% serum, not in serum-free medium
# Procedure: To measure the effect of CTGF on cell proliferation, DNA synthesis was measured by ^3H incorporation in PSCs. The cells were incubated for 24 hours with 0.2 μCi [^3H] thymidine in each well (24-well plate). The incorporation of [^3H] thymidine into PSC DNA was determined using a scintillation counter after the cells had been washed with PBS, fixed with 10% methanol, treated with cold 5% trichloroacetic acid, and lysed in 0.3 N NaOH.
# [5] = EDTA 10 mM, GRGDsp 1 mM, Echistatin 2 μM
# integrin αvβ3, sequence (P06756 31-889 limits assumed): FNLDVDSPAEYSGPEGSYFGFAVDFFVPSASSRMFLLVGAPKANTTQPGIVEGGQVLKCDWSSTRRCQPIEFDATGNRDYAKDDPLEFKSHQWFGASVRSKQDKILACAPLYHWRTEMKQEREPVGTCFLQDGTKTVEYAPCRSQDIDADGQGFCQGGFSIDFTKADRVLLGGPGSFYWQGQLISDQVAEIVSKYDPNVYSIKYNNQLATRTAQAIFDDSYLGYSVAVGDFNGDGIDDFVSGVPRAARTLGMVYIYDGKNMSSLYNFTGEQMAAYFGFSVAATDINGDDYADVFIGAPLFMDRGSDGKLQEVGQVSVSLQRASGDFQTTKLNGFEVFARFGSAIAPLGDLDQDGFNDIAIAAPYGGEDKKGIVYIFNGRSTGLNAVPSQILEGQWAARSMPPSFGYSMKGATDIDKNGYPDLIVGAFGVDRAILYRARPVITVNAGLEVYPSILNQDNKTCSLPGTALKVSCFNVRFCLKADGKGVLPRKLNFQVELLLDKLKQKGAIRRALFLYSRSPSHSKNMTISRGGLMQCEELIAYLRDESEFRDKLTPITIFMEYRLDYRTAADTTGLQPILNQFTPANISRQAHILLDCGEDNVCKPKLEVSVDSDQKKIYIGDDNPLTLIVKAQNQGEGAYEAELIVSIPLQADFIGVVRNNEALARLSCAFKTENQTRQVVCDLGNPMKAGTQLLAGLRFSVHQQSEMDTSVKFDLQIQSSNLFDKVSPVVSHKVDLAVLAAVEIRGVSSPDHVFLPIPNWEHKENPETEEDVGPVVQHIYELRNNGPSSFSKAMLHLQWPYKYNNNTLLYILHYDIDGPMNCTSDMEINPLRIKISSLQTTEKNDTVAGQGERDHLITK
# integrin αvβ3, sequence (P06756 891-1048 partner limits assumed): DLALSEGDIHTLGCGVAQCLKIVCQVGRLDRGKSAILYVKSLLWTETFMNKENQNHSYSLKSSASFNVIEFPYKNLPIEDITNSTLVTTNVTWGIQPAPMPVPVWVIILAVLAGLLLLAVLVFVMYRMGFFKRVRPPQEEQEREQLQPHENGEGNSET
# integrin αvβ3, sequence (P05106 27-788): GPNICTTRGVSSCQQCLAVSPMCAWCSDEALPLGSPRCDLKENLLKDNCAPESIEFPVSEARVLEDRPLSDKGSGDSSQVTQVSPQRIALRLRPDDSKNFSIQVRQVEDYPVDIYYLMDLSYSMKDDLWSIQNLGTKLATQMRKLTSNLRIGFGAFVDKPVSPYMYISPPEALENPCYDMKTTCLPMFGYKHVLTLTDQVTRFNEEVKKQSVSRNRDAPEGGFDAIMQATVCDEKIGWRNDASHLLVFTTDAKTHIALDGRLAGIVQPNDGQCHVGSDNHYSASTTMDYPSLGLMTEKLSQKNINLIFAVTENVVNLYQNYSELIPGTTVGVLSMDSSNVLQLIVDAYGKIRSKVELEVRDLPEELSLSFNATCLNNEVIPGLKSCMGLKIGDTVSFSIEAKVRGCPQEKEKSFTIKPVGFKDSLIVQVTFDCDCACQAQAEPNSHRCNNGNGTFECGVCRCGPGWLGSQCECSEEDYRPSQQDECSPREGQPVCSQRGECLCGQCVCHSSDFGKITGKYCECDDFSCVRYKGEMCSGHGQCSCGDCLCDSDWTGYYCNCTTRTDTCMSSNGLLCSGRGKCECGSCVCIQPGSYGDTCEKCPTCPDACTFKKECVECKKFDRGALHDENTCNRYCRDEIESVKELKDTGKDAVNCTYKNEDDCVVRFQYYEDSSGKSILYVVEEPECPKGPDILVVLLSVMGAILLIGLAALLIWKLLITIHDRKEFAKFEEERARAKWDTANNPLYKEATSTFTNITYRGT
molecule,measurement,setting,value
"vitronectin: ECM protein, known ligand of αvβ3 [reference compound]",saturation of αvβ3 binding at coating concentration,integrin αvβ3; 1 μg/ml integrin αvβ3,4 µg/mL
[Ca+2] [Ca^2+],effect of divalent cation on HSC adhesion to CTGF4,[1],completely abolished
same,restoration of CTGF-mediated PSC adhesion after EDTA,[2],restored
same,reversal of EDTA inhibition of α5β1 binding to CTGF4,integrin α5β1,reversed
[Na+].[O-][Cl+2]([O-])[O-] [sodium chlorate],inhibition of CTGF4-mediated HSC adhesion,[1]; [5],Inability of HSC to adhere to CTGF4
same,inhibition of vitronectin-mediated HSC adhesion,[1]; wells coated 4 μg/ml vitronectin,unaffected
chondroitinase ABC,inhibition of CTGF4-mediated HSC adhesion,[1]; [5],no effect
IRTPKISKPIKFELSG [CTGF[257-272]],"HSC adhesion to coated peptide, saturation",[1],2 µg/mL
same,HSC adhesion supported by the coated substance,[1],promoted HSC adhesion in a concentration-dependent manner
same,inhibition of αvβ3 binding to CTGF4,integrin αvβ3,completely inhibited
same,inhibition of αvβ3 binding to vitronectin,"integrin αvβ3; 35 μM peptide, 4 μg/ml VN coat",85%
same,inhibition of PSC adhesion to CTGF4,[2],completely inhibited
same,PSC adhesion supported by the coated substance,[2],able to support the adhesion
same,inhibition of FN-mediated PSC adhesion,[2],unaffected
same,inhibition of cell-free binding of integrin α5β1 to FN,integrin α5β1; peptides 35 μM,did not block
EENIKKGKKCIRTP (listed as Homo sapiens) [CTGF[247-260]],HSC adhesion supported by the coated substance,[1],no adhesion ability
"IRTPAAAAPIKFELSG [Mutant 2, mutant CTGF4 protein with K261A, I262A, S263A, K264A]",HSC adhesion relative to wild-type CTGF4,[1]; mutant CTGF4 proteins,completely unable to support HSC adhesion
[Mn+2] [Mn^2+],effect of divalent cation on HSC adhesion to CTGF4,[1],restored
GRGDsp,inhibition of CTGF1-4-mediated HSC adhesion,"[1]; wells coated 2 μg/ml CTGF1-4, EDTA 10 mM, GRGDsp 1 mM, Echistatin 2 μM",45%
same,inhibition of CTGF3-4-mediated HSC adhesion,"[1]; wells coated 2 μg/ml CTGF3-4, EDTA 10 mM, GRGDsp 1 mM, Echistatin 2 μM",51%
same,inhibition of CTGF4-mediated HSC adhesion,[1]; [5],58%
[Mg+2] [Mg^2+],effect of divalent cation on HSC adhesion to CTGF4,[1],restored
same,restoration of CTGF-mediated PSC adhesion after EDTA,[2],restored
same,reversal of EDTA inhibition of α5β1 binding to CTGF4,integrin α5β1,reversed
GVCTDGR [Peptide P5],inhibition of PSC adhesion to CTGF4,[2],completely inhibited
same,PSC adhesion supported by the coated substance,[2],able to support the adhesion
same,inhibition of FN-mediated PSC adhesion,[2],able to block
same,inhibition of binding between CTGF4 and integrin α5β1,"integrin α5β1; peptides 35 μM, EDTA 5 mM",blocked
same,inhibition of cell-free binding of integrin α5β1 to FN,integrin α5β1; peptides 35 μM,blocked
CCO [ethanol],activity of pCCN2-Luc in PSC,CTGF promoter,significantly increased
CC=O [acetaldehyde],activity of pCCN2-Luc in PSC,CTGF promoter,significantly increased
PDGF,activity of pCCN2-Luc in PSC,CTGF promoter,significantly increased
same,PSC migration,PSCs [3],promoted
same,PSC proliferation (DNA synthesis),PSCs [4],significantly enhanced
CTGF[259-272]: CTGF4 peptide that covers 87.5% of the sequence of peptide CTGF[257-272] (TPKISKPIKFELSG),inhibition of αvβ3 binding to CTGF4,integrin αvβ3,67%
